Consider two compounds from ChEMBL document CHEMBL1201862, “PubChem BioAssay data set” (2004).

Assay [1] addresses T1, Zinc finger protein mex-5 (Caenorhabditis elegans, UniProt Q9XUB2).
T1 sequence (Q9XUB2 whole entry): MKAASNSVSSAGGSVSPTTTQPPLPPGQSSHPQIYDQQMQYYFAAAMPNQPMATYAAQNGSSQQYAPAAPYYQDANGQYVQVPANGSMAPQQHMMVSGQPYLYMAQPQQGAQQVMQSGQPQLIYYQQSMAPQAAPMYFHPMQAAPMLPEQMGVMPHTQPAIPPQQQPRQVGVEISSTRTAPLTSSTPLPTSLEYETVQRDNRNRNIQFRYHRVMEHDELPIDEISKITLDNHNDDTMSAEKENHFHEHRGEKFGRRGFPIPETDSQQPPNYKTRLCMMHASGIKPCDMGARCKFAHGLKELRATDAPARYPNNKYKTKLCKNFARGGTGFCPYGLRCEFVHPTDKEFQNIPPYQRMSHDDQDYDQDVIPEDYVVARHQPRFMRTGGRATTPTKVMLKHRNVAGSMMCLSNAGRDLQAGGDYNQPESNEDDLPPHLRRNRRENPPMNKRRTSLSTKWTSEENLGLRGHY
The experiment in a line: potency of MEX-5 RNA-binding blockers – biochemical, C. elegans, fluorescence polarization, dose response (AID 1960). In general terms: Polarisation of emitted light reports the rotation of a fluorescent probe.

Assay [2] addresses T2, RNA-binding protein pos-1 (Caenorhabditis elegans, UniProt G5EF15).
T2 sequence (G5EF15 whole entry): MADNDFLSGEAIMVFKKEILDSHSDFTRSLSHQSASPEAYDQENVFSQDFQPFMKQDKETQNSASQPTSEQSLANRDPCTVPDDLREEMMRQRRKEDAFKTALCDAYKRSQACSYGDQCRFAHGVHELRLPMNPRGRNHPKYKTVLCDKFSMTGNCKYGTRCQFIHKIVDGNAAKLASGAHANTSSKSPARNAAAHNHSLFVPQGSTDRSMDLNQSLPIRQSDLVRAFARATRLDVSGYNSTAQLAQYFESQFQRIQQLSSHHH
The experiment in a line: disruptors of C. elegans POS-1 RNA interaction – biochemical, fluorescence polarization, dose response (AID 1964).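 Further: purified POS-1 fused to maltose binding protein made in E. coli; potency of compounds blocking POS-1 binding to fluorescent RNA.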

The target of another assay is T3, Leucine aminopeptidase (Plasmodium falciparum 3D7, UniProt Q8IL11).
T3 sequence (Q8IL11 whole entry): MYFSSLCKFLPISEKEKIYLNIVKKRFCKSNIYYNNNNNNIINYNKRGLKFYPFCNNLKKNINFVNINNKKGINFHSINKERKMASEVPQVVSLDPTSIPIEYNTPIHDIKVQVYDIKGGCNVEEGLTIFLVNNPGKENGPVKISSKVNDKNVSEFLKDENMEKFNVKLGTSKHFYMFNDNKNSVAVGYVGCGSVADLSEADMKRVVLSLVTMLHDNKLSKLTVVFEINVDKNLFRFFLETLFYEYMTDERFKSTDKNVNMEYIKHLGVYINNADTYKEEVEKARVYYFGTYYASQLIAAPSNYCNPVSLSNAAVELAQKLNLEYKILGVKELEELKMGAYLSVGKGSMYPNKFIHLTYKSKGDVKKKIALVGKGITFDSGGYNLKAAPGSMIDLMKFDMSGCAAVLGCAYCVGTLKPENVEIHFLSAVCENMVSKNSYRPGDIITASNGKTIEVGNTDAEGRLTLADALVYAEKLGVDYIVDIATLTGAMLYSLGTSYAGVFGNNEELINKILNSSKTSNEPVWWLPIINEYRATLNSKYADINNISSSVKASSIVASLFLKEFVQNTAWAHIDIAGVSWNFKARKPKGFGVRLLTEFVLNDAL
In words: P. falciparum M17LAP inhibitors, primary screen, biochemical, fluorogenic H-Leu-NHMec substrate, 1536-well (AID 1619). Type of assay: functional.

A further assay deals with ORF 73 (Human herpesvirus 8, UniProt O40947). In words: KSHV LANA DNA-binding disruption – biochemical, fluorescence polarization, cherry-picked samples, dose response (AID 504725).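 Further: fluorescence polarization of a labeled DNA duplex reporting LANA DNA binding; potency is for inhibitors that block LANA binding to the DNA.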 Also noted: species or system Human gammaherpesvirus 8.
Assay [3] has as its target T4, Histone-lysine N-methyltransferase NSD2 (Homo sapiens, UniProt O96028).
T4 sequence (O96028 whole entry): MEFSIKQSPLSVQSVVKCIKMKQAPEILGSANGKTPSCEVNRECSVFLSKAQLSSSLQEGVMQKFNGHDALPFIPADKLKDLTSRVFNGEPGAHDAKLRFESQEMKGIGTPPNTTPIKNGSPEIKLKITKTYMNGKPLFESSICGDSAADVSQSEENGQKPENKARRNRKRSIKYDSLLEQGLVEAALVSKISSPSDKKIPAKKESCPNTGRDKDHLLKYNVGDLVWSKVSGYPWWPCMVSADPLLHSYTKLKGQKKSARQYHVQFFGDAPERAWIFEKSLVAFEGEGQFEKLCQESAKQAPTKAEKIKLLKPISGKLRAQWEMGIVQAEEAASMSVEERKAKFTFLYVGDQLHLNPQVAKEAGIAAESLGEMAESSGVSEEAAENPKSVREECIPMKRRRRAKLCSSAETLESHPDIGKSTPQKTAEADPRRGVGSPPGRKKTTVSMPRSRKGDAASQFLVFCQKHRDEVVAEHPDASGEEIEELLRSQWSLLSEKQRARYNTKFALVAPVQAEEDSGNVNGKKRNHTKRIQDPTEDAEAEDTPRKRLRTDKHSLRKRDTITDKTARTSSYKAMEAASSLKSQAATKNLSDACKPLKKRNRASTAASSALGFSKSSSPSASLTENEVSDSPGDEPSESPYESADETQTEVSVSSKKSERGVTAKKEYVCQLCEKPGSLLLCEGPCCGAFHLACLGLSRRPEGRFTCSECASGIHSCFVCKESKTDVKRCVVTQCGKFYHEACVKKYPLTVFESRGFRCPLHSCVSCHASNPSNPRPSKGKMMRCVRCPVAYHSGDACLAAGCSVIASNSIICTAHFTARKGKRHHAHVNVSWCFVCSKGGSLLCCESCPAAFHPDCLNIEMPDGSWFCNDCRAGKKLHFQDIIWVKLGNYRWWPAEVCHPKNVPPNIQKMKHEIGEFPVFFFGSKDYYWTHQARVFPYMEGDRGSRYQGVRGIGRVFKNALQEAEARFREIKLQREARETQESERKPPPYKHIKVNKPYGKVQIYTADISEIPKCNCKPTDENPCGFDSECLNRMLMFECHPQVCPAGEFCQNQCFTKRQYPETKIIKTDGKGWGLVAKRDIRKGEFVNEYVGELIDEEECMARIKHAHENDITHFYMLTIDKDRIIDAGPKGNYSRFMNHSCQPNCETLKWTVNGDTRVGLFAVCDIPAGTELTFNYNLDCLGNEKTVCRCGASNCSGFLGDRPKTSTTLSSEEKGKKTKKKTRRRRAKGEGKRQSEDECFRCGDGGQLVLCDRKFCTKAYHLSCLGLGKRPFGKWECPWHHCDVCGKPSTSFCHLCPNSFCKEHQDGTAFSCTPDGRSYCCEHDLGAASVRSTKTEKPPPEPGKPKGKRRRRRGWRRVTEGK
Type of assay: biochemical.

For assay [4], the target named is T5, Protein disulfide-isomerase (Homo sapiens, UniProt P07237). In words: inhibition of PDI-mediated insulin reduction – biochemical, turbidity, absorbance, cherry-picked samples, set 2, dose response (AID 624274). The class given is functional.
Assay [5] addresses T5, Protein disulfide-isomerase. In words: inhibition of PDI-driven insulin aggregation – biochemical, turbidity, absorbance, cherry-picked samples, dose response (AID 602350). The class given is functional.
Assay [6] addresses T6, Carboxy-terminal domain RNA polymerase II polypeptide A small phosphatase 1 (Homo sapiens, UniProt Q9GZU7).
T6 sequence (Q9GZU7 whole entry): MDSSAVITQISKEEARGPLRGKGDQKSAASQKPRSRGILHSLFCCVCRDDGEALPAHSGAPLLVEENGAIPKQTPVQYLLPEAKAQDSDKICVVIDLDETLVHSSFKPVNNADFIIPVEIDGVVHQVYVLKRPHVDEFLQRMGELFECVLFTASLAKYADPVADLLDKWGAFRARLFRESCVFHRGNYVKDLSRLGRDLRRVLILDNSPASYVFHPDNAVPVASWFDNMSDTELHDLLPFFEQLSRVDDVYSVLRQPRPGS
The experiment in a line: CTDSP1 inhibitors, concentration-response, biochemical, absorbance readout, ultra-high-throughput screen actives (AID 540297). The class given is functional.

Assay [7] addresses T7, Tyrosine-protein phosphatase non-receptor type 11 (Homo sapiens, UniProt Q06124).
T7 sequence (Q06124 whole entry): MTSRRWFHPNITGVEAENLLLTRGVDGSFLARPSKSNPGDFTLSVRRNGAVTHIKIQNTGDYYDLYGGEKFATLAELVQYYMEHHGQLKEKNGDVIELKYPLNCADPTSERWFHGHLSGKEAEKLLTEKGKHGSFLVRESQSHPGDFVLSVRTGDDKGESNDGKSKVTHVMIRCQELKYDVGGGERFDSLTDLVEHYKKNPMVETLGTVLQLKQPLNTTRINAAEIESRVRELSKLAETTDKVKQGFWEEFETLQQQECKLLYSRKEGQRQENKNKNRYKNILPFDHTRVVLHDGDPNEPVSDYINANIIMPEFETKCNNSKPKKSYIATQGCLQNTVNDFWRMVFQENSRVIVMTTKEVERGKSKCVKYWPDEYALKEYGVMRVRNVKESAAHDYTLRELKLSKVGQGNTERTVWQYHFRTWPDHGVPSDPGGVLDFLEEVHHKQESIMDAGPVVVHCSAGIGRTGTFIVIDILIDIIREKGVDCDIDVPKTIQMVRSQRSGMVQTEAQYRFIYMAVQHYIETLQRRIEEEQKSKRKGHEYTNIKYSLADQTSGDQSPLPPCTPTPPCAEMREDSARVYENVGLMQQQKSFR
In words: PTPN11 enzyme inhibitors – biochemical, selectivity assay for STEP inhibitor project, dose response (AID 602367). Type of assay: functional. To be noted: read-out: IC50_Mean.

Assay [8] deals with Dual specificity protein phosphatase 3 (Homo sapiens, UniProt P51452). The experiment in a line: VHR phosphatase inhibition, dose response, selectivity assay for STEP inhibitor project, biochemical (AID 602374). Type of assay: functional. To be noted: read-out: IC50_Mean.
Assay [9] deals with T8, Tyrosine-protein phosphatase non-receptor type 22 (Homo sapiens, UniProt Q9Y2R2).
T8 sequence (Q9Y2R2 whole entry): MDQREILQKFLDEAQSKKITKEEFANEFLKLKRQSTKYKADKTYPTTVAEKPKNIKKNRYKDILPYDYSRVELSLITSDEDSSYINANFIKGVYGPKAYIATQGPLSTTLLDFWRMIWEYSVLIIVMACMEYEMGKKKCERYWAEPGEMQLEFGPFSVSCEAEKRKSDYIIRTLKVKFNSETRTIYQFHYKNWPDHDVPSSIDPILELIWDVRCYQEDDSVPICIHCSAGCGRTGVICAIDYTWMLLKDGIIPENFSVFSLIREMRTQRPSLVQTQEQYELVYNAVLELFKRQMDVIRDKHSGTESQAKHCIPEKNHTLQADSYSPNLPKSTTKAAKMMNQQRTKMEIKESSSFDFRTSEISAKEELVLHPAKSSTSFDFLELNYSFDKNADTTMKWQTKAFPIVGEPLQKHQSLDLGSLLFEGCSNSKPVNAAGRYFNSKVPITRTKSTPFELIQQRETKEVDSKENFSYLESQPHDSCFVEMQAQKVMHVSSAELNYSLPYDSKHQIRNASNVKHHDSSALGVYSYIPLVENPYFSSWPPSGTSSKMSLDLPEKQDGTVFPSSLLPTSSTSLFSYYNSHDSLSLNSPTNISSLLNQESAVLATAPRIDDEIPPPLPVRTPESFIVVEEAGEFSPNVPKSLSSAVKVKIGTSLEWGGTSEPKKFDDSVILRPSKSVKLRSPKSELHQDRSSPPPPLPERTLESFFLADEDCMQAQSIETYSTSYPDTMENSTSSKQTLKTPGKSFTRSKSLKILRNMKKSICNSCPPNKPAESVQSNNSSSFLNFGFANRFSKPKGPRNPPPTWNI
The experiment in a line: lymphoid phosphatase LYP inhibitors – biochemical, selectivity assay for STEP inhibitor project, dose response (AID 624241). Type of assay: functional.

Assay [10] has as its target T9, Tyrosine-protein phosphatase non-receptor type 5 (Homo sapiens, UniProt P54829).
T9 sequence (P54829 whole entry): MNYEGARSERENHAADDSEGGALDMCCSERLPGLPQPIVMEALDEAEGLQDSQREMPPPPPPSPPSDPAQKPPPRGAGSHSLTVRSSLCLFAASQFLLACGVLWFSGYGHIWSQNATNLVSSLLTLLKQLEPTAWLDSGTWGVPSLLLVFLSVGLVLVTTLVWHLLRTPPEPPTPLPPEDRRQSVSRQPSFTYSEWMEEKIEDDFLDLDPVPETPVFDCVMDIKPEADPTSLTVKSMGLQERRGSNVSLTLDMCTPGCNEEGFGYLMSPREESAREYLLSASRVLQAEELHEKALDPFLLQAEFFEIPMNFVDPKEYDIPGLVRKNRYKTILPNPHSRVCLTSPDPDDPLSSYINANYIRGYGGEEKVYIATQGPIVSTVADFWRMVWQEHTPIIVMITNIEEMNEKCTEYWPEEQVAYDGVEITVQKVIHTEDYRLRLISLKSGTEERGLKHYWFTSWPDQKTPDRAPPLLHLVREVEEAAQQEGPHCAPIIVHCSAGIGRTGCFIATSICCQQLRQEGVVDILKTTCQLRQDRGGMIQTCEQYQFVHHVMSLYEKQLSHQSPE
In words: PTPN5 enzyme inhibition – biochemical, fluorescence intensity, uHTS hits, confirmation (AID 602372). To be noted: read-out: IC50_Mean. Type of assay: functional.

One may read the EC50 as the concentration at which the effect is half-maximal. As a reminder, the AC50 is the concentration giving half of the maximal activity seen.

Active and inactive are the calls of the source.

T5 sequence (P07237 whole entry): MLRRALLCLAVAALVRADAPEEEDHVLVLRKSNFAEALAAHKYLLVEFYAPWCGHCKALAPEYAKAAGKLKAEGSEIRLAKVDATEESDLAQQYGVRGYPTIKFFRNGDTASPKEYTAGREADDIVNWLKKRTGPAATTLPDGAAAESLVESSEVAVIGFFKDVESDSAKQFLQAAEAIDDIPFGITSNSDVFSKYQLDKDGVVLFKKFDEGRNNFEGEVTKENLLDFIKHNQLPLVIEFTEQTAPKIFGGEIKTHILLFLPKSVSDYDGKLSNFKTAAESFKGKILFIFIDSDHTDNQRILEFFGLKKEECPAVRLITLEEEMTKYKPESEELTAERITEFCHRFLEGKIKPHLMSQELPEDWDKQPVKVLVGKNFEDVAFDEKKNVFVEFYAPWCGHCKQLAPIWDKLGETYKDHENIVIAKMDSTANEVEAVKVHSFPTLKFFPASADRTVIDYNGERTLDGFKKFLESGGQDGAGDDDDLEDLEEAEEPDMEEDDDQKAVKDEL
ORF 73, sequence (O40947 whole entry): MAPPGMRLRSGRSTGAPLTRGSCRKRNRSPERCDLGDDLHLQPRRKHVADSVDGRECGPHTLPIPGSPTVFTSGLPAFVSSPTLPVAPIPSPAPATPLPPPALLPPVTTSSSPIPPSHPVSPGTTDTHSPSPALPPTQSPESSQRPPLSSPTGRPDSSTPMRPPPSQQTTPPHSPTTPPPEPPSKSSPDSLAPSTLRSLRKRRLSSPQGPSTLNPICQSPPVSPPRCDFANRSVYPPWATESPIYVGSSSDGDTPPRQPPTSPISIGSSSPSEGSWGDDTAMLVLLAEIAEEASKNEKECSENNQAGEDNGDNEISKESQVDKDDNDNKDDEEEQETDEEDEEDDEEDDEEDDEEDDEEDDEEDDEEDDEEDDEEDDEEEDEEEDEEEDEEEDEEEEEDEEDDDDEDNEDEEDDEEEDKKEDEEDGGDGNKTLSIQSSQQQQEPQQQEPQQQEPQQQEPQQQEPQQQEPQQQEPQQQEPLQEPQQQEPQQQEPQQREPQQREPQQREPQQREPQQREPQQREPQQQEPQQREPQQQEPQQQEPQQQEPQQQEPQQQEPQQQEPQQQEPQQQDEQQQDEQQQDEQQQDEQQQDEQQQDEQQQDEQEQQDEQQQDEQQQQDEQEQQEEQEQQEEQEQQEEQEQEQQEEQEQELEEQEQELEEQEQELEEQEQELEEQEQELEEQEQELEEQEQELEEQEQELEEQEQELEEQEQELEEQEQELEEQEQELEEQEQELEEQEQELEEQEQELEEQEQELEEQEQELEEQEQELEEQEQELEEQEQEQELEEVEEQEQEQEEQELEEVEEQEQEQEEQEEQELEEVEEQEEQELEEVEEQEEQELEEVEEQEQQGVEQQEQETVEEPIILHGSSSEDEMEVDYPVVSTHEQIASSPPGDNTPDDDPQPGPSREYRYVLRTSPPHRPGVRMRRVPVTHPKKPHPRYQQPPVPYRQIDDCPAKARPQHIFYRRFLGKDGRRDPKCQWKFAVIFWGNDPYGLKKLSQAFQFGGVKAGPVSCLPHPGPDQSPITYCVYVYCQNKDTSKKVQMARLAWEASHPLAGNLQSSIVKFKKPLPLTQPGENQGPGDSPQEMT
Dual specificity protein phosphatase 3, sequence (P51452 whole entry): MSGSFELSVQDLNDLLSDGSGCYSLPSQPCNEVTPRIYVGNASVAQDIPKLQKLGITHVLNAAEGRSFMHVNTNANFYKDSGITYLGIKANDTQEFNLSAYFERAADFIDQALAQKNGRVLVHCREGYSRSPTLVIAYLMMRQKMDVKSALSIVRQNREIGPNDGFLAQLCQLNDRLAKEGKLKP

With `O=C(O)CCCCCn1c(SCC(=O)c2ccc(O)c(O)c2)nc2ccsc2c1=O`, the EC50 in [1] was 61.6 µM (active); in assay [2], 270 µM (active). Also, on Leucine aminopeptidase, the IC50 is 12.8 µM (active). Moreover, the AC50 was 2.89 µM (active) on ORF 73, 7.35 µM (active) in [3], 0.009 µM (active) in [4] and < 0.009 µM (active) in assay [5].

As to `COc1ccc2cc3c(N)nn(C(=O)c4cccc(F)c4)c3nc2c1`, the IC50 in [6] was 8.49 µM (active); in [7] it was 5.27 µM (active); in assay [8], 4.31 µM (active); in [9], 60.2 µM (inactive); in assay [10], 16.9 µM (active).
